Patent publication US4260605A, “Novel alkylated pregnanes, processes for their preparation and pharmaceutical compositions containing same” (Akzo N.V., priority 1979, dated 1981)

System: dorsal shaved skin
Test: Rat seven-day intracutaneous skin thinning test (skin thinning and systemic effects)
Assay type: in vivo, rat (male, strain CFHB)
Details: for systemic effects: conclusion in words; for Final body weight / Combined adrenal weight / Thymus weight / Spleen weight / Treated skin weight: mean; for Final body weight: 8 mg intracutaneous (16×0.5 mg), autopsy seven days later, initial body weight 200±3 g, control 249; for Combined adrenal weight / Thymus weight / Spleen weight / Treated skin weight: 8 mg intracutaneous, seven days; for Combined adrenal weight: control 41.5; for Thymus weight: control 612; for Spleen weight: control 788; for Treated skin weight: 4×4 cm area of treated skin, control 1.630
Procedure: Male rats strain CFHB, initial body weight 200±3 g, were used in the experiment and divided in seven groups each containing 10 animals, six groups being used for testing the compounds a-f and the seventh group serving as controls.
Each anaesthetised animal in each group received 8 mg of the respective compound injected as 16×0.5 mg suspended in 0.05 ml of suspension fluid into a 4×4 cm area of dorsal shaved skin. […]
At autopsy seven days later the spleen, adrenals, thymus and body weight were recorded in addition to the 4×4 cm area of treated skin. Table B summarises the means of the results.

systemic effects	Combined adrenal weight [mg]	Thymus weight [mg]	Spleen weight [mg]	Treated skin weight [g]	Structure (SMILES)	Final body weight [g]
have systemic effects	21.5	96	445	1.445	CCCCC(=O)O[C@]1(C(=O)CO)[C@@H](C)C[C@H]2[C@@H]3CCC4=CC(=O)C=C[C@]4(C)[C@@]3(F)[C@@H](O)C[C@@]21C [f, betamethasone 17valerate]	229
have systemic effects	17.4	65	150	1.107	CC1(C)O[C@@H]2C[C@H]3[C@@H]4CCC5=CC(=O)C=C[C@]5(C)[C@@]4(F)[C@@H](O)C[C@]3(C)[C@]2(C(=O)CO)O1 [h, triamcinolone acetonide]	142
have systemic effects	34.7	96	503	1.410	CCCC(=O)O[C@]1(C(=O)CO)CC[C@H]2[C@@H]3CCC4=CC(=O)CC[C@]4(C)[C@H]3[C@@H](O)C[C@@]21C [g, hydrocortisone 17n-butyrate]	227

Structure (SMILES)	systemic effects	Combined adrenal weight [mg]	Thymus weight [mg]	Spleen weight [mg]	Treated skin weight [g]	Final body weight [g]
CCCC(=O)O[C@]1(C(=O)CC)CC[C@H]2[C@@H]3CCC4=CC(=O)CC[C@]4(C)[C@H]3[C@@H](O)C[C@@]21C [b, 11β,17dihydroxy-21-methyl-Δ^4pregnene-3,20-dione 17n-butyrate]		36.3	533	727	1.660	249
